Numbered stars: 1 amine (or outer) side, 2 acyl side, 3 side chain; on linkers, the order of the positions; unused ones are H or OH. Bridge positions count the residues as written; N and C are the ends. Square brackets hold non-standard residues; d marks the D form. Ends that are not written are not given here. Peptide text beside a SMILES is read from it. X1 = O=C(C(N[*:1])C1CCc2ccccc2C1)[*:2]; mXylylene = c1cc(C[*:1])cc(C[*:2])c1; X2 = O=C(Cc1cccc(C[*:2])c1)[*:1]; Chg = N[C@H](C(=O)O)C1CCCCC1; Tle = CC(C)(C)[C@H](N)C(=O)O; Mpa = O=C(O)CCS
Biological target: T1, human plasma kallikrein (Homo sapiens, UniProt P03952)
T1 construct: purchased Enzyme Research Laboratories HPKa 1303
Assay: Enzyme inhibition assay (fluorogenic substrate H-Pro-Phe-Arg-AMC)
Assay type: biochemical
Settings: Kallikrein inhibitory activity; 1 nM activated human kallikrein, 500 μM H-Pro-Phe-Arg-AMC, 1 hour room temperature; read-out: Avg. IC50
Summary of the method: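 IC50 was determined from AMC fluorescence (ex 360/em 460 nm) after 1 h of reaction at room temperature with 500 μM final substrate. Before this, peptides in ten 8-fold serial dilutions were incubated 5 min with 1 nM final activated kallikrein. The buffer was Tris-HCl pH 7.2 containing NaCl, CaCl2 and Brij-35.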

T1 sequence (P03952 20-390 limits assumed): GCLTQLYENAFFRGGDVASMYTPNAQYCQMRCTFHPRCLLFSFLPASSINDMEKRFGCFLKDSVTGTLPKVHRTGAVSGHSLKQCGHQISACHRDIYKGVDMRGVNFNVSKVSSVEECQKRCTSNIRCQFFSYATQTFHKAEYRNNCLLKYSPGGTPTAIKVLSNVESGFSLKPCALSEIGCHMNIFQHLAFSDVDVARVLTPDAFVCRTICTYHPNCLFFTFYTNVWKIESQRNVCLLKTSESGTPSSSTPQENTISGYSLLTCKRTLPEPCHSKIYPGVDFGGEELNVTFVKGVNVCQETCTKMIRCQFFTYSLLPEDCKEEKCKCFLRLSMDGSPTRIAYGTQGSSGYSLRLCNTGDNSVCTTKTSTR
T1 sequence (P03952 391-638 limits assumed): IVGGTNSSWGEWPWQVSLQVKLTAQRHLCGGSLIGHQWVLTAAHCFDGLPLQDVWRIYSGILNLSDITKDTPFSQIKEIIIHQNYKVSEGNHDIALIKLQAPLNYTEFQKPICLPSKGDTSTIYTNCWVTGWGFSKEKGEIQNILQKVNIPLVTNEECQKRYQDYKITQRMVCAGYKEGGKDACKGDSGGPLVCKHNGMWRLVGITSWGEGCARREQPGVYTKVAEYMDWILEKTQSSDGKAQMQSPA

Molecule | IC50
CC(C)(C)[C@H](NC(=O)[C@H](CCCNC(=N)N)NC(=O)[C@@H]1CSCc2cccc(c2)CC(=O)N[C@@H](CCC(=O)O)C(=O)N2CCC[C@H]2C(=O)N[C@@H](C2CCCCC2)C(=O)N1)C(N)=O [Compound R2264] (EP[Chg]CR[Tle]-NH2; linker N-4 via X2) | 1100 nM
CC(C)(C)[C@H](NC(=O)[C@H](CCCNC(=N)N)NC(=O)[C@@H]1CSCc2cccc(c2)CC(=O)NCC(=O)N2CCC[C@H]2C(=O)N[C@@H](C2CCCCC2)C(=O)N1)C(N)=O [Compound R2265] (GP[Chg]CR[Tle]-NH2; linker N-4 via X2) | 39.2 nM
CC(C)(C)[C@H](NC(=O)[C@H](CCCNC(=N)N)NC(=O)[C@@H]1CSCc2cccc(c2)CSCCC(=O)N2CCC[C@H]2C(=O)NC(C2CCc3ccccc3C2)C(=O)N1)C(N)=O (stereo partly shown) [Compound R2266] ([Mpa]P[X1]CR[Tle]-NH2; linker 1-4 via mXylylene) | 118 nM
CC(C)(C)[C@H](NC(=O)[C@H](CCCNC(=N)N)NC(=O)[C@@H]1CSCc2cccc(c2)CSCCC(=O)N2CCC[C@H]2C(=O)NC(C2CCc3ccccc3C2)C(=O)N1)C(N)=O (stereo partly shown) [Compound R2267] ([Mpa]P[X1]CR[Tle]-NH2; linker 1-4 via mXylylene) | 12.8 nM
Ac-ANYWSPWTAA-NH2 [Compound R2145, Ac-ANYWSPWTAA-NH2] | 58.8 nM
Ac-CNYWSPWTEA-NH2 [Compound R2127, Ac-CNYWSPWTEA-NH2] | 35.6 nM
Ac-SPWTECSA-NH2 [Compound R2120, Ac-SPWTECSA-NH2] | > 100000 nM
Ac-WSPWTECSA-NH2 [Compound R2119, Ac-WSPWTECSA-NH2] | > 100000 nM
Ac-YWSPWTECSA-NH2 [Compound R2118, Ac-YW SPWTECSA-NH2] | > 100000 nM
MCNYWSP-NH2 [Compound R2115, MCNYWSP-NH2] | > 17300 nM

Reference: patent publication US9999650B2, “Peptide and peptidomimetic inhibitors” (Ra Pharmaceuticals, Inc., priority 2012, dated 2018)
